Data reported in patent US12122761B2, “2-azaspiro[3.4]octane derivatives as M4 agonists” (NOVARTIS AG, priority 2019, dated 2024).

Tests used:
[1] = target: T1, human cloned CHRM4 receptor (M4_CHO cells) (Homo sapiens, UniProt P08173); assay: CHRM4 Ca++ Flux Assay (agonist mode, FDSS 7000EX); type: cell-based; conditions: for Emax: Percent Activity, read-out: M4 FDSS PA; for EC50: geometric mean if tested more than once, read-out: M4 FDSS EC50
T1 construct: expressed in transfected cells; host or cells: CHO-K1
T1 sequence (P08173 1-479): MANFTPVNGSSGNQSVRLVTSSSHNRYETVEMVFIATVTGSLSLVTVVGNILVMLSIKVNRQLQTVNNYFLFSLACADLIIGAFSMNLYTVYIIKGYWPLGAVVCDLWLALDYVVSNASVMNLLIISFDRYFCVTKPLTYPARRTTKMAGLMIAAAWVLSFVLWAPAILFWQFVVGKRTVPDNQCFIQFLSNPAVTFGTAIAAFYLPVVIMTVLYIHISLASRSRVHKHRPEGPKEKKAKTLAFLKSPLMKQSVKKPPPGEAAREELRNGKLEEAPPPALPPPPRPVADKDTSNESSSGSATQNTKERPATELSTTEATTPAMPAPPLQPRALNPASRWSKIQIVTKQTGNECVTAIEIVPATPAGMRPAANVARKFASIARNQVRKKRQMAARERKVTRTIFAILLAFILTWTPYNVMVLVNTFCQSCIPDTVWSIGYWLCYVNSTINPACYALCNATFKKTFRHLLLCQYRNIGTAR
Method in brief: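 M4_CHO cells loaded with a Ca++ dye for at least 1 h were held 60 min at room temperature in HEPES/probenecid buffer with 20 μM ATP. Ca++ flux after an 11-point compound dose, in triplicate and agonist mode, was recorded over 3 min. Four-parameter fits gave curves, with activity expressed relative to the Carbachol EC100.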

[2] = target: T2, human cloned CHRM5 receptor (M5_CHO) (Homo sapiens, UniProt P08912); assay: CHRM5 Ca++ Flux Assay (agonist mode, FDSS 7000EX); type: cell-based; conditions: for Emax: Percent Activity measured to EC100 of Carbachol, read-out: M5 FDSS PA; for EC50: agonist mode, geometric mean if tested more than once, read-out: M5 FDSS EC50
T2 construct: expressed in transfected cells; host or cells: CHO (M5_CHO)
T2 sequence (P08912 1-532): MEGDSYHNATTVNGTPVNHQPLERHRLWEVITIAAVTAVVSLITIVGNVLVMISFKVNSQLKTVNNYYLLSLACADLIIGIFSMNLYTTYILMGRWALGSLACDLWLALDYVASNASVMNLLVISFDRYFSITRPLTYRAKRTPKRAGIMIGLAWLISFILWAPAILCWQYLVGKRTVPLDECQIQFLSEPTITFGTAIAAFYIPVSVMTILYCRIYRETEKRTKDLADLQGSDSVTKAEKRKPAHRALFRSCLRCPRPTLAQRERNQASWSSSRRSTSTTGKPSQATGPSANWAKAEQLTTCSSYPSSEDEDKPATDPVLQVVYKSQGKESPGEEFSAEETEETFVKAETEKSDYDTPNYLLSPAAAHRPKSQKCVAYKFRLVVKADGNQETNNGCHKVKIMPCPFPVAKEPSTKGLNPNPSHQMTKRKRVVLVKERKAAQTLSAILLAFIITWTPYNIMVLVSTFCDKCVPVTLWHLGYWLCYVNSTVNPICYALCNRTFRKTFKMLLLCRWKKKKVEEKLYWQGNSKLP
Method in brief: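 Agonist-mode calcium flux: 11-point dose responses, triplicate wells, fluorescence followed for 3 minutes. Cells are M3_CHO or M5_CHO lines (human receptors) with Ca++ indicator in probenecid-containing HEPES/HBSS buffer. Percent activity is referenced to carbachol EC100, and curves come from four-parameter nonlinear regression.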

O=C(C1COC1)N1CC2(CC[C@@H](N3CCC(c4ccccc4OCCOC4COC4)CC3)C2)C1 [Example 7EE, (R)-oxetan-3-yl(6-(4-(2-(2-(oxetan-3-yloxy)ethoxy)phenyl)piperidin-1-yl)-2-azaspiro[3.4]octan-2-yl)methanone]
Emax [1]: 61% | EC50 [1]: 6 nM | Emax [2]: 0% | EC50 [2]: > 25000 nM

CC(C)COc1ccccc1C1CCN([C@@H]2CCC3(C2)CN(C(=O)C2COC2)C3)CC1 [Example 7F, (R)-(6-(4-(2-isobutoxyphenyl)piperidin-1-yl)-2-azaspiro[3.4]octan-2-yl)(oxetan-3-yl)methanone]
Emax [1]: 60% | EC50 [1]: 14 nM | Emax [2]: 0% | EC50 [2]: > 25000 nM

O=C(C1COC1)N1CC2(CC[C@@H](N3CCC(c4ccccc4OC4CCCC4)CC3)C2)C1 [Example 7G, (R)-(6-(4-(2-(cyclopentyloxy)phenyl)piperidin-1-yl)-2-azaspiro[3.4]octan-2-yl)(oxetan-3-yl)methanone]
Emax [1]: 61% | EC50 [1]: 9 nM | Emax [2]: 0% | EC50 [2]: > 25000 nM

O=C(C1COC1)N1CC2(CC[C@@H](N3CCC(c4ccccc4OCCC(F)(F)F)CC3)C2)C1 [Example 7GG, (R)-oxetan-3-yl(6-(4-(2-(3,3,3-trifluoropropoxy)phenyl)piperidin-1-yl)-2-azaspiro[3.4]octan-2-yl)methanone]
Emax [1]: 48% | EC50 [1]: 7 nM | Emax [2]: 14% | EC50 [2]: 974 nM

O=C(C1COC1)N1CC2(CC[C@@H](N3CCC(c4ccccc4OC4CCC4)CC3)C2)C1 [Example 7H, (R)-(6-(4-(2-cyclobutoxyphenyl)piperidin-1-yl)-2-azaspiro[3.4]octan-2-yl)(oxetan-3-yl)methanone]
Emax [1]: 70% | EC50 [1]: 4 nM | Emax [2]: 0% | EC50 [2]: > 25000 nM

COC(C)(C)COc1ccccc1C1CCN([C@@H]2CCC3(C2)CN(C(=O)C2COC2)C3)CC1 [Example 7HH, (R)-(6-(4-(2-(2-methoxy-2-methylpropoxy)phenyl)piperidin-1-yl)-2-azaspiro[3.4]octan-2-yl)(oxetan-3-yl)methanone]
Emax [1]: 50% | EC50 [1]: 19 nM | Emax [2]: 0% | EC50 [2]: > 25000 nM

O=C(C1COC1)N1CC2(CC[C@@H](N3CCC(c4ccccc4OCC4CC4)CC3)C2)C1 [Example 7I, (R)-(6-(4-(2-(cyclopropylmethoxy)phenyl)piperidin-1-yl)-2-azaspiro[3.4]octan-2-yl)(oxetan-3-yl)methanone]
Emax [1]: 55% | EC50 [1]: 7 nM | Emax [2]: 0% | EC50 [2]: > 25000 nM

O=C(C1COC1)N1CC2(CC[C@@H](N3CCC(c4ccccc4OCC4(C(F)(F)F)CC4)CC3)C2)C1 [Example 7II, (R)-oxetan-3-yl(6-(4-(2-((1-(trifluoromethyl)cyclopropyl)methoxy)phenyl)piperidin-1-yl)-2-azaspiro[3.4]octan-2-yl)methanone]
Emax [1]: 50% | EC50 [1]: 9 nM | Emax [2]: 13% | EC50 [2]: 1640 nM

CCOc1ccccc1C1CCN([C@@H]2CCC3(C2)CN(C(=O)C2COC2)C3)CC1 [Example 7J, (R)-(6-(4-(2-ethoxyphenyl)piperidin-1-yl)-2-azaspiro[3.4]octan-2-yl)(oxetan-3-yl)methanone]
EC50 [1]: 6 nM | Emax [2]: 0%

O=C(C1COC1)N1CC2(CC[C@@H](N3CCC(c4ccccc4OCC(F)F)CC3)C2)C1 [Example 7JJ, (R)-(6-(4-(2-(2,2-difluoroethoxy)phenyl)piperidin-1-yl)-2-azaspiro[3.4]octan-2-yl)(oxetan-3-yl)methanone]
Emax [1]: 49% | EC50 [1]: 2 nM | Emax [2]: 9% | EC50 [2]: 935 nM

CC(C)Oc1ccccc1C1CCN([C@@H]2CCC3(C2)CN(C(=O)C2COC2)C3)CC1 [Example 7K, (R)-(6-(4-(2-isopropoxyphenyl)piperidin-1-yl)-2-azaspiro[3.4]octan-2-yl)(oxetan-3-yl)methanone]
Emax [1]: 76% | EC50 [1]: 9 nM | Emax [2]: 0% | EC50 [2]: > 25000 nM
